Results taken from US10689357B2, “N-acylethanolamine hydrolyzing acid amidase (NAAA) inhibitors and use thereof” (Northeastern University, priority 2018, dated 2020).

What follows are compounds tested against hNAAA (Homo sapiens (Human), UniProt Q02083) (assay: NAAA fluorescence-based inhibition assay with PAMCA substrate). Conditions: purified activated hNAAA, PAMCA 5 μM, pH 4.5, 37° C.
Format: biochemical
Text: In order to have an assay method more conducive to high-throughput screening than those published for measuring the NAE hydrolyzing activity of NAAA [Proc. Natl. Acad. Sci. USA. 2009; 106(49):20966-71], the fluorogenic PEA analog N-(4-methyl coumarin)palmitamide (PAMCA), which is hydrolyzed to fluorescent 7-amino-4-methyl coumarin (AMC) and palmitic acid, was developed. [J. Proteome Res. 2012; 11(2):972-981], [PloS One. 2012; 7: e43877]. For three point concentration inhibition assays with hNAAA the following procedure was used. Purified activated NAAA (final concentration of 0.25 μg/mL) was incubated in assay buffer (100 mM citrate-phosphate buffer, pH 4.5, 3 mM DTT, 0.1% Triton X-100, 0.05% BSA, and 150 mM NaCl) made up to a total volume of 180 μL, followed by addition of the compound dissolved in 10 μL DMSO (along with DMSO neat for the control sample) with the final concentrations for each compound of 100, 10, and 1 μM, in triplicate on a 96 well plate. These samples were allowed to incubate for 15 min at room temperature and then 10 μL of a PAMCA stock solution in DMSO (final PAMCA concentration [5 μM]) was added. After 5 minutes of agitation on a shaking plate, the reaction was allowed to proceed at 37° C. for 120 minutes, with fluorescence readings taken every 10 minutes at a wavelength of 460 nm (using an excitation wavelength of 360 nm) on a Synergy HT Plate Reader using Gen5 software from Bio-Tek. The enzyme activity was calculated by converting the relative fluorescence units to AMC formed, using a standard curve of AMC.
For compounds that inhibit hNAAA in range IC50<1 μM, full inhibition curves using eight different concentrations of inhibitor (8 point assay) were generated. The assay procedure used was the same as the three point assay. For ostensibly covalent compounds (as observed by a significant decrease in the slope of a plot of fluorescence vs. time in three point screen), samples were allowed to incubate for 2 hours at 37° C., instead of 15 minutes, before addition of 10 μL of a PAMCA stock solution in DMSO for a final PAMCA concentration of 5 μM. After 5 minutes of agitation on a shaking plate, the reaction was allowed to proceed at 37° C. for 120 minutes. Inhibition constants were calculated using pro Fit software (Quantum Soft, Uetikon am See, Switzerland) and a Levenberg-Marquardt algorithm.

Chain of hNAAA (Q02083 29-125): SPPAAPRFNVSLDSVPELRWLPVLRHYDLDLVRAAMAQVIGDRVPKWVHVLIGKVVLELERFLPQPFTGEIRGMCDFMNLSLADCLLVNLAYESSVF
Chain of hNAAA (Q02083 126-359): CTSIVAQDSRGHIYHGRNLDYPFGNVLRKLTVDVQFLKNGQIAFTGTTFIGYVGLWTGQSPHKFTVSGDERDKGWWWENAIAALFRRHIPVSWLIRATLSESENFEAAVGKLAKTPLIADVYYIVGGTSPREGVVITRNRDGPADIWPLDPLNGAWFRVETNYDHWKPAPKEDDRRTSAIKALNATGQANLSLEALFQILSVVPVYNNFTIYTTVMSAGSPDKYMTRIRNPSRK

SMILES | IC50
COc1ccc(-c2ccc(C(=O)N[C@H]3C[C@@H](N=C=S)C3)nc2)nc1 [Example 34, N-(cis-(3-Isothiocyanatocyclobutyl))-5-methoxy-[2,3′-bipyridine]-6′-carboxamide] | 10 to 100 nM
COc1cccc(-c2ccc(C(=O)N[C@H]3C[C@@H](N=C=S)C3)nc2)c1 [Example 20, N-((1r, 3r)-3-Isothiocyanatocyclobutyl)-5-(3-methoxyphenyl)picolinamide] | 110 to 1000 nM
COc1ccc(-c2ccc(C(=O)N[C@H]3C[C@@H](N=C=S)C3)nc2)cc1 [Example 18, N-((1s, 3 s)-3-Isothiocyanatocyclobutyl)-5-(4-methoxyphenyl)picolinamide] | 10 to 100 nM
CC[C@H]1CC[C@H](c2ccc(C(=O)N[C@H]3C[C@@H](N=C=S)C3)cc2)CC1 [Example 11, 4-((1s, 4s)-4-Ethylcyclohexyl)-N-((1r, 3R)-3-isothiocyanatocyclobutyl) benzamide] | > 1000 nM
COc1ccc([C@H]2C[C@@H](C(=O)N[C@H]3C[C@@H](N=C=S)C3)C2)cc1 [Example 41, (1s,3S)—N-((1s,3S)-3-Isothiocyanatocyclobutyl)-3-(4-methoxyphenyl) cyclobutane-1-carboxamide] | 10 to 100 nM
COc1ccc(-c2ccc(C(=O)O[C@H]3C[C@@H](N=C=S)C3)c(F)c2)cc1 [Example 8, (1r, 3r)-3-Isothiocyanatocyclobutyl 3-fluoro-4′-methoxy-[1,1′-biphenyl]-4-carboxylate] | 10 to 100 nM
COc1ccc(-c2ccc(C(=O)N[C@H]3C[C@@H](N=C=S)C3)c(F)c2)cc1 [Example 7, 3-Fluoro-N-((1r, 3r)-3-isothiocyanatocyclobutyl)-4′-methoxy-[1,1′-biphenyl]-4-carboxamide] | 10 to 100 nM
